According to US20100184698A1, “USE OF A […] […] A […] AGENT” (priority 2007, published 2010):
Where no end group is shown, it is not given here.

How the values were obtained:
[1] = tested on: hepatitis B virus (HBV) ayw strain in HepG2-2.2.15 cells; experiment: HBV experimental assay system (secreted HBV DNA, TaqMan PCR); format: cell-based; settings: 10 micrograms per ml; 6 days; combination 0.95 mole peptide 1 and 1.05 mole peptide 2
[2] = tested on: Interleukin-4 (IL-4) production in murine spleen cells; experiment: Th1/Th2 cytokine profiling assay: IL-4; format: cell-based, Balb/c mice; settings: 10 micrograms per ml, Ovalbumin restimulation, 72 hours
[3] = tested on: Interferon-γ (IFN-γ) production in murine spleen cells; experiment: Th1/Th2 cytokine profiling assay: IFN-γ; format: cell-based, Balb/c mice; settings: 10 micrograms per ml; Ovalbumin restimulation, 72 hours; combination 0.95:1.05 mole
[4] = tested on: Interleukin-2 (IL-2) production in murine spleen cells; experiment: Th1/Th2 cytokine profiling assay: IL-2; format: cell-based, Balb/c mice; settings: 10 micrograms per ml; Ovalbumin restimulation, 72 hours
[5] = tested on: Interleukin-5 (IL-5) production in murine spleen cells; experiment: Th1/Th2 cytokine profiling assay: IL-5; format: cell-based, Balb/c mice; settings: 10 micrograms per ml, Ovalbumin restimulation, 72 hours
[6] = tested on: Tumor Necrosis Factor-α (TNF-α) production in murine spleen cells; experiment: Th1/Th2 cytokine profiling assay: TNF-α; format: cell-based, Balb/c mice; settings: 10 micrograms per ml, Ovalbumin restimulation, 72 hours
[7] = tested on: Primary Human endothelial cells (HUVEC); experiment: Endothelial cell migration assay; format: cell-based; settings: 10 micrograms per ml; 22 hours
Method: Thereafter, designated concentration of testing peptides—10 micrograms per ml—was added in duplicate wells.

HUVEC = experiment: Endothelial tube formation assay; format: cell-based, human; settings: 10 micrograms per ml; 20 hours
Description: Positive control was vehicle only.

HCMV strain AD169 = settings: for inhibition of HCMV plaque formation as compared to the virus control experiment: 10 micrograms per ml, 7-10 days
HIV-1IIIB = experiment: HIV-1 antiviral assay in CEM-SS cells

Molecule	inhibition of HBV replication as compared to the virus control infection [1] [%]	production of IFN-y, decreased by [3] [%]	inhibition of the migration of human endothelial cells [7] [%]	inhibition of the tube formation of human endothelial cells (HUVEC) [%]	inhibition of HCMV plaque formation as compared to the virus control experiment (HCMV strain AD169)	antiviral activity of positive control compounds (HIV-1IIIB)	also measured
Ile-Asn-Leu-Lys-Ala-Leu-Ala-Ala-Leu-Ala-Lys-Lys-Ile-Leu-NH2 (INLKALAALAKKIL-NH2) [Peptide 2]	40.6	54	23	10	did not inhibit		change of the production of IL-4 ([2]; combination 0.95:1.05 mole): did not significantly change; production of IL-2, increased by [4]: 77%; change of the production of IL-5 ([5]; combination 0.95:1.05 mole): did not significantly change; production of TNF-a, decreased by [6]: 61.3%
CC(C)(C)NC(=O)[C@@H]1CN(Cc2cccnc2)CCN1C[C@@H](O)C[C@@H](Cc1ccccc1)C(=O)N[C@H]1c2ccccc2C[C@H]1O [indinavir]						expected levels of antiviral activity	
Nc1nc(O)c2ncn(COC(CO)CO)c2n1 [Ganciclovir, reference compound]							antiviral activity of positive control compound (HCMV strain AD169; positive control, MRC-5 cells, HCMV): expected levels of antiviral activity
CCNC(=O)[C@@H]1CCCN1C(=O)[C@H](CCCN=C(N)N)NC(=O)[C@H](CC(C)C)NC(=O)[C@@H](Cc1c[nH]c2ccccc12)NC(=O)[C@H](Cc1ccc(O)cc1)NC(=O)[C@H](CO)NC(=O)[C@H](Cc1c[nH]c2ccccc12)NC(=O)[C@H](Cc1cnc[nH]1)NC(=O)[C@@H]1CCC(=O)N1 [Peptide 1, Pyr-His-Trp-Ser-Tyr-D-Trp-Leu-Arg-Pro-NHEt]	15.1	31.4	3	7	did not inhibit		production of IL-4, induced by [2]: 32.1%; production of IL-2, decreased by [4]: 53.2%; production of IL-5, decreased by [5]: 27.6%; change of the production of TNF-alpha ([6]; combination 0.95:1.05 mole): did not significantly change
Cc1cn([C@H]2C[C@H](N=[N+]=[N-])[C@@H](CO)O2)c(=O)[nH]c1=O [AZT]						expected levels of antiviral activity	
